The test system of assay [1] is Hepatitis C virus. Briefly: In vitro inhibitory concentration against hepatitis C virus internal ribosome entry site (HCV-IRES) translation. The class given is functional, Hepacivirus hominis.
For assay [2], the system named is Hepatitis C virus. Briefly: Selectivity was determined as the ratio of IC50 of non-IRES to that of IC50 of HCV-IRES. The class given is functional, Hepacivirus hominis.
A short description of assay [3]: In vitro inhibitory concentration against non internal ribosome entry site translation. The class given is functional.

A value given as a limit tells only on which side of the number the result lay.

In general, IC50 refers to the concentration that gives 50% inhibition. Consider `Cc1cc(C)nc(/N=C(\N)NCCc2cccnc2)n1`, for which the IC50 in the assay on Hepatitis C virus [1] was 32 µM. The Selectivity in the assay with Hepatitis C virus [2] came to 4.
The like results for `Cc1cc(C)nc(/N=C(\N)NCCc2ccc([N+](=O)[O-])cc2)n1` were, in that order, 54 µM and 1.5.
For the molecule `Cc1ccnc(/N=C(\N)NCCc2ccccc2)n1`, in the assay with Hepatitis C virus [1], the IC50 came out at 46 µM. Also, the Selectivity in the assay on Hepatitis C virus [2] was determined as 3.5.
With `Cc1cc(C)nc(/N=C(\N)NCCc2ccc(C(=O)O)cc2)n1`, the IC50 (in the assay on Hepatitis C virus [1]; in assay [3]) was greater than 200 µM in each case.
With `Cc1cc(C)nc(/N=C(\N)NC[C@H](O)c2ccccc2)n1`, in the assay on Hepatitis C virus [1], half-maximal inhibition (IC50) was put at 75 µM. In addition, in the assay on Hepatitis C virus [2], the Selectivity was greater than 2.7.
The like results for `Cc1cc(C)nc(/N=C(\N)NC[C@@H](O)c2ccccc2)n1` were, in that order, 9.7 µM and greater than 2.2.
In the case of `Cc1cc(C)nc(NC(=N)NCCc2ccccc2)c1`, the IC50 (in the assay with Hepatitis C virus [1]; in assay [3]) was greater than 200 µM each time.
Regarding `Cc1nc(/N=C(\N)NCCc2ccccc2)nc(C)c1O`, in the assay on Hepatitis C virus [1], the IC50 turned out to be 19 µM. For the same molecule, the Selectivity with Hepatitis C virus [2] came out at 3.6.
With `Cc1cc(C)cc(NC(=N)NCCc2ccccc2)c1`, the IC50 (in the assay on Hepatitis C virus [1]; in assay [3]) was greater than 200 µM each time.
On to `Cc1cc(C)nc(/N=C(\N)NCCc2ccncc2)n1`, for which the IC50 in the assay on Hepatitis C virus [1] was determined as 55 µM. Moreover, the Selectivity with Hepatitis C virus [2] is greater than 3.6.
Taken in the same sequence, the figures for `Cc1cc(C)nc(/N=C(\N)NCC(c2ccccc2)c2ccccc2)n1` were 75 µM and greater than 2.7.
Taken in the same sequence, the figures for `Cc1cc(C)nc(/N=C(\N)NCCc2ccc(Br)cc2)n1` were 50 µM and 2.5.
Taken in the same sequence, the figures for `Cc1cc(C)nc(/N=C(\N)NCCc2ccccc2C)n1` were 15 µM and 1.8.
For `COC(=O)c1ccc(CC/N=C(\N)Nc2nc(C)cc(C)n2)cc1`, in the assay on Hepatitis C virus [1], inhibition was half-maximal at 29 µM (IC50). The Selectivity in the assay on Hepatitis C virus [2] is given as 3.4.
Taken in the same sequence, the figures for `Cc1nc(/N=C(\N)NCCc2ccccc2)nc(C)c1Br` were 8.1 µM and 2.2.
As to `Cc1cc(C)nc(/N=C(\N)NCCc2ccc(C(C)(C)C)cc2)n1`, the IC50 (with Hepatitis C virus [1]; in assay [3]) was greater than 200 µM throughout.
In the assay with Hepatitis C virus [1], `COc1ccc(CCNC(=N)Nc2nc(C)cc(C)n2)cc1` registered an IC50 of 25 µM. Further, in the assay on Hepatitis C virus [2], the Selectivity stood at 4.1.
Taken in the same sequence, the figures for `Cc1cc(C)nc(/N=C(\N)NCc2cccs2)n1` were 38 µM and 1.3.
The like results for `Cc1cccc(CC/N=C(\N)Nc2nc(C)cc(C)n2)c1` were, in that order, 23 µM and 2.8.
Taken in the same sequence, the figures for `Cc1cc(C)nc(/N=C(\N)NCCc2ccc(OC(F)(F)F)cc2)n1` were 92 µM and greater than 2.2.
As for `COc1cc(OC)nc(/N=C(\N)NCCc2ccccc2)n1`, inhibition in the assay with Hepatitis C virus [1] was half-maximal at 35 µM (IC50). In the assay on Hepatitis C virus [2], the Selectivity is reported as 5.
Take `Cc1cc(C)nc(/N=C(\N)NCCc2ccc(F)cc2)n1`: the IC50 in the assay with Hepatitis C virus [1] came out at 23 µM. The Selectivity in the assay with Hepatitis C virus [2] worked out at 4.1.
The like results for `Cc1cc(C)nc(/N=C(\N)NCCc2ccc(Cl)cc2)n1` were, in that order, 24 µM and 2.3.
Taken in the same sequence, the figures for `COc1c(C)nc(/N=C(\N)NCCc2ccccc2)nc1C` were 9.9 µM and 3.4.
Molecule `Cc1cc(C)nc(/N=C(\N)NCCc2ccccc2Cl)n1` returned an IC50 in the assay with Hepatitis C virus [1] of 16 µM. Further, the Selectivity with Hepatitis C virus [2] is listed as 1.8.
The like results for `Cc1nc(/N=C(\N)NCCc2ccccc2)nc(C)c1OCCCN(C)C` were, in that order, 2.1 µM and 2.
For the molecule `Cc1cc(C)nc(/N=C(\N)NCCc2cccc(Cl)c2)n1`, the IC50 in the assay on Hepatitis C virus [1] turned out to be 12 µM. Besides, the Selectivity with Hepatitis C virus [2] is 1.8.
Taken in the same sequence, the figures for `COc1cc(CC/N=C(\N)Nc2nc(C)cc(C)n2)cc(OC)c1` were 26 µM and greater than 7.7.
Taken in the same sequence, the figures for `COc1ccc(CC/N=C(\N)Nc2nc(C)cc(C)n2)c(OC)c1` were 68 µM and 2.6.
Taken in the same sequence, the figures for `Cc1ccc(CC/N=C(\N)Nc2nc(C)cc(C)n2)cc1` were 34 µM and 3.8.
For the molecule `Cc1cc(C)nc(/N=C(\N)NCCc2ccc(C(F)(F)F)cc2)n1`, the IC50 in the assay with Hepatitis C virus [1] worked out at 82 µM. Also, the Selectivity in the assay on Hepatitis C virus [2] is reported as 2.2.
In turn, `COc1ccccc1CC/N=C(\N)Nc1nc(C)cc(C)n1` showed an IC50 in the assay on Hepatitis C virus [1] of 13 µM. Also, the Selectivity with Hepatitis C virus [2] is on record as 1.8.
For `Cc1cc(C)nc(/N=C(\N)NCCc2ccc3ccccc3n2)n1`, 23 µM corresponded to half-maximal inhibition in the assay on Hepatitis C virus [1] (IC50). In the assay with Hepatitis C virus [2], the Selectivity was 3.7.
With `CCc1cc(CC)nc(/N=C(\N)NCCc2ccccc2)n1`, the IC50 with Hepatitis C virus [1] turned out to be 13 µM. Further, the Selectivity with Hepatitis C virus [2] is on record as 2.2.
On to `Cc1ccc(CC/N=C(\N)Nc2nc(C)cc(C)n2)c(C)c1`, for which the midpoint of inhibition in the assay on Hepatitis C virus [1], the IC50, lay at 23 µM. The Selectivity in the assay on Hepatitis C virus [2] amounted to 3.3.
Taken in the same sequence, the figures for `Cc1cc(C)nc(/N=C(\N)NCc2ccco2)n1` were 97 µM and greater than 2.
Taken in the same sequence, the figures for `COc1cc(OC)c(CC/N=C(\N)Nc2nc(C)cc(C)n2)c(OC)c1` were 100 µM and greater than 2.
Taken in the same sequence, the figures for `Cc1cc(C)nc(/N=C(\N)NCCc2ccccn2)n1` were 39 µM and 2.4.
In the assay with Hepatitis C virus [1], `Cc1cc(C)nc(N/C(N)=N/CCc2ccc(C(C)C)cc2)n1` displayed an IC50 of 104 µM. For the same molecule, in the assay with Hepatitis C virus [2], the Selectivity is listed as greater than 1.9.
The like results for `COc1ccc(OC)c(CC/N=C(\N)Nc2nc(C)cc(C)n2)c1` were, in that order, 94 µM and greater than 2.1.
In the case of `Cc1cc(C)nc(NC(=N)N(C)CCc2ccccc2)n1`, the IC50 (in the assay with Hepatitis C virus [1]; in assay [3]) was greater than 200 µM throughout.
With `CCOc1ccc(CC/N=C(\N)Nc2nc(C)cc(C)n2)cc1`, the IC50 with Hepatitis C virus [1] worked out at 82 µM. In addition, the Selectivity in the assay with Hepatitis C virus [2] is recorded as greater than 2.4.
Take `Cc1cc(C)nc(NC(=O)NCCc2ccccc2)n1`: the IC50 (in the assay on Hepatitis C virus [1]; in assay [3]) was greater than 200 µM each time.
`Cc1cc(C)nc(/N=C(\S)NCCc2ccccc2)n1`: the IC50 (in the assay on Hepatitis C virus [1]; in assay [3]) was greater than 200 µM in each case.
`Cc1cc(C)nc(N/C(N)=N/C[C@H](C)c2ccccc2)n1` gave an IC50 in the assay with Hepatitis C virus [1] of 35 µM. Moreover, the Selectivity in the assay with Hepatitis C virus [2] was 5.7.
As for `Cc1cc(C)nc(N(C)C(=N)NCCc2ccccc2)n1`, the IC50 (in the assay with Hepatitis C virus [1]; in assay [3]) was greater than 200 µM in each case.
In turn, `Cc1cc(C)nc(/N=C(\N)NCCc2ccc(-c3ccccc3)cc2)n1` displayed an IC50 with Hepatitis C virus [1] of 80 µM. Also, the Selectivity with Hepatitis C virus [2] is listed as greater than 2.5.
Taken in the same sequence, the figures for `Cc1cc(C)nc(/N=C(\N)NCCc2ccc(O)cc2)n1` were 49 µM and 3.
The like results for `Cc1ccc(C)c(CC/N=C(\N)Nc2nc(C)cc(C)n2)c1` were, in that order, 35 µM and 5.7.
The like results for `Cc1cc(C)nc(/N=C(\N)NCc2cc3ccccc3o2)n1` were, in that order, 25 µM and 2.8.
Molecule `Cc1nc(/N=C(\N)NCCc2ccccc2)nc(C)c1C` showed an IC50 in the assay with Hepatitis C virus [1] of 4.2 µM. Also, the Selectivity in the assay on Hepatitis C virus [2] came to 1.3.
The like results for `Cc1cc(C)nc(/N=C(\N)NCCc2ccccc2)n1` were, in that order, 9.6 µM and 2.4.
Molecule `Cc1cc(C)nc(/N=C(\N)NCCCc2ccccc2)n1` registered a 50% inhibitory concentration (IC50) in the assay with Hepatitis C virus [1] of 150 µM. Also, in the assay on Hepatitis C virus [2], the Selectivity was 1.3.
Taken in the same sequence, the figures for `Cc1cc(C)nc(N/C(N)=N/C[C@@H](C)c2ccccc2)n1` were 21 µM and 1.9.
In turn, `Cc1cc(C)nc(/N=C(\N)NCc2ccccc2)n1` had an IC50 with Hepatitis C virus [1] of 7.6 µM. For the same molecule, the Selectivity with Hepatitis C virus [2] came to 2.6.
Taken in the same sequence, the figures for `Cc1cc(C)nc(/N=C(\N)NCCc2ccc(N)cc2)n1` were 61 µM and 2.5.
The like results for `Cc1cc(C)nc(/N=C(\N)NCc2nc3ccccc3[nH]2)n1` were, in that order, 23 µM and 1.7.

The record behind these values is ChEMBL document CHEMBL1137901, “Biaryl guanidine inhibitors of in vitro HCV-IRES activity” (Bioorg Med Chem Lett, 2004).
